Results reported in patent US10202658B2, “Methods for determining hypersusceptibility of HIV-1 to non-nucleoside reverse transcriptase inhibitors” (Monogram Biosciences, Inc., priority 2005, dated 2019).

Key:
Assay type in all cases: cell-based
[1] = system: HIV-1, RT mutations: T215Y and 2 TAMs and H208X; assay: PhenoSense resistance test vector assay, clinical isolates with T215Y and 2 TAMs and H208X; conditions: share of samples designated hypersusceptible
Description: (§1) In preferred embodiments, the phenotypic analysis of NNRTI hypersusceptibility is performed using PHENOSENSE™ (ViroLogic Inc., South San Francisco, Calif.). See Petropoulos et al., 2000, Antimicrob. Agents Chemother. 44:920-928; U.S. Pat. Nos. 5,837,464 and 6,242,187. PHENOSENSE™ is a phenotypic assay that achieves the benefits of phenotypic testing and overcomes the drawbacks of previous assays. Because the assay has been automated, PHENOSENSE™ provides high throughput methods under controlled conditions for determining NNRTI resistance, susceptibility, or hypersusceptibility of a large number of individual viral isolates.
(§2) The assay can be performed by first co-transfecting host cells with RTV DNA and a plasmid that expresses the envelope proteins of another retrovirus, for example, amphotropic murine leukemia virus (MLV). Following transfection, viral particles can be harvested from the cell culture and used to infect fresh target cells in the presence of varying amounts of anti-viral drug(s). The completion of a single round of viral replication in the fresh target cells can be detected by the means for detecting replication contained in the vector. In a preferred embodiment, the completion of a single round of viral replication results in the production of luciferase. By monitoring the amount of, e.g., luciferase activity in the presence of the varying amounts of antiviral drug(s), a resistance curve can be constructed by plotting luciferase activity versus drug concentration. The susceptibility of an HIV, or population of HIV, can be determined by measuring the concentration of antiviral drug at which the luciferase activity detected is half-maximal. This number, the IC50, provides a standard and convenient measure of drug resistance.
(§3) Patient-derived segment(s) corresponding to the HIV protease and reverse transcriptase coding regions were amplified by the reverse transcription-polymerase chain reaction method (RT-PCR) using viral RNA isolated from viral particles present in the plasma or serum of HIV-infected individuals as follows. […]

[2] = system: HIV-1, RT mutations: T215Y and 2 TAMs and H208 wt; assay: PhenoSense resistance test vector assay, clinical isolates with T215Y and 2 TAMs and H208 wt; conditions: share of samples designated hypersusceptible
Description: as §1, §2, §3

[3] = system: HIV-1 NL4-3 SDM, L74V in reverse transcriptase; assay: NNRTI susceptibility of site-directed mutant (SDM) containing L74V in NL4-3 background; conditions: relative to NL4-3
Description: as §1
as §2, with “By monitoring the amount of, e.g., luciferase activity in the presence of the varying amounts of antiviral drug(s), a resistance curve can be constructed by plotting luciferase activity versus drug concentration.” left out, “This number, the IC50, provides a standard and convenient measure of drug resistance.” left out
Resistance tests were carried out with resistance test vectors using two host cell types. […] The resistance test vector viral particles were then used to infect a second host cell (the target host cell) in which the expression of the indicator gene is measured.
The amount of luciferase activity detected in infected cells is used as a direct measure of “infectivity,” i.e., the ability of the virus to complete a single round of replication. Thus, drug resistance or sensitivity can be determined by plotting the amount of luciferase activity produced by patient derived viruses in the presence of varying concentrations of the antiviral drug. […]

[4] = system: HIV-1, RT mutations: T215Y and 2 TAMs and V118 wt; assay: PhenoSense resistance test vector assay, clinical isolates with T215Y and 2 TAMs and V118 wt; conditions: share of samples designated hypersusceptible
Description: as §1, §2, §3

[5] = system: HIV-1, RT mutations: None; assay: PhenoSense resistance test vector assay, clinical isolates without NRTI, NNRTI or PI mutations (WT reference group); conditions: share of samples designated hypersusceptible
Description: as §1, §2, §3

[6] = system: HIV-1, RT mutations: K70R and 2 TAMs; assay: PhenoSense resistance test vector assay, clinical isolates with K70R and 2 TAMs; conditions: share of samples designated hypersusceptible
Description: as §1, §2, §3

[7] = system: HIV-1, RT mutations: 2 NAMs; assay: PhenoSense resistance test vector assay, clinical isolates with 2 NAMs; conditions: share of samples designated hypersusceptible
Description: as §1, §2, §3

HIV-1, RT mutations: 69X = assay: PhenoSense resistance test vector assay, clinical isolates with 69X; conditions: share of samples designated hypersusceptible
Description: as §1, §2, §3

[8] = system: HIV-1, RT mutations: 3 NAMs; assay: PhenoSense resistance test vector assay, clinical isolates with 3 NAMs; conditions: share of samples designated hypersusceptible
Description: as §1, §2, §3

[9] = system: HIV-1, RT mutations: 184V; assay: PhenoSense resistance test vector assay, clinical isolates with 184V; conditions: share of samples designated hypersusceptible
Description: as §1, §2, §3

## CC(C)Nc1cccnc1N1CCN(C(=O)c2cc3cc(NS(C)(=O)=O)ccc3[nH]2)CC1 [DLV, delavirdine]
[1]
  % IC50 0.4 fold < WT: 90.9%
[2]
  % IC50 0.4 fold < WT: 68.7%
[3]
  FC (fold change in IC50): 0.68+/−0.06
[4]
  % IC50 0.4 fold < WT: 83.9%
[5]
  % IC50 0.4 fold < WT: 4.9%
[6]
  % IC50 0.4 fold < WT: 15.7%
[7]
  % IC50 0.4 fold < WT: 30.1%
HIV-1, RT mutations: 69X
  % IC50 0.4 fold < WT: 13.2%
[8]
  % IC50 0.4 fold < WT: 12.8%
[9]
  % IC50 0.4 fold < WT: 12.3%

## O=C1Nc2ccc(Cl)cc2[C@@](C#CC2CC2)(C(F)(F)F)O1 [EFV, efavirenz]
[1]
  % IC50 0.4 fold < WT: 54.5%
[2]
  % IC50 0.4 fold < WT: 55.1%
[3]
  FC (fold change in IC50): 0.67+/−0.02
[4]
  % IC50 0.4 fold < WT: 78.1%
[5]
  % IC50 0.4 fold < WT: 4.2%
[6]
  % IC50 0.4 fold < WT: 31.0%
[7]
  % IC50 0.4 fold < WT: 39.8%
HIV-1, RT mutations: 69X
  % IC50 0.4 fold < WT: 19.8%
[8]
  % IC50 0.4 fold < WT: 28.2%
[9]
  % IC50 0.4 fold < WT: 16.9%

## Cc1ccnc2c1NC(=O)c1cccnc1N2C1CC1 [NVP, nevirapine]
[1]
  % IC50 0.4 fold < WT: 9.1%
[2]
  % IC50 0.4 fold < WT: 34.8%
[3]
  FC (fold change in IC50): 0.59+/−0.06
[4]
  % IC50 0.4 fold < WT: 37.5%
[5]
  % IC50 0.4 fold < WT: 8.1%
[6]
  % IC50 0.4 fold < WT: 36.9%
[7]
  % IC50 0.4 fold < WT: 39.8%
HIV-1, RT mutations: 69X
  % IC50 0.4 fold < WT: 20.8%
[8]
  % IC50 0.4 fold < WT: 17.9%
[9]
  % IC50 0.4 fold < WT: 16.3%
